Test results published in DBAASP.
In brackets after ≈: the same amount, converted by molar mass. Several values for one entry are separate records, joined by “and”; a condition that tells them apart may be missing. Identical values can stand only once. One block for each molecule: values may come before it.

Key:
Experiment in all cases: ≥ marks a high value that may be exact or a test limit, other limits are often not marked, values filed in µg/mL are converted to µM
[1] = test system: Escherichia coli MC1041
[2] = test system: Escherichia coli JJ2489
[3] = test system: Escherichia coli J2210
[4] = test system: Escherichia coli
[5] = test system: Escherichia coli JW2778 ΔygdD
[6] = test system: Salmonella typhimurium SL1344
[7] = test system: Salmonella enterica subsp. enterica serovar Newport
[8] = test system: Salmonella enterica subsp. enterica serovar Enteritidis MH91989
[9] = test system: Escherichia coli JW0013
[10] = test system: Salmonella enterica serovar Tennessee
[11] = test system: Escherichia coli JW0368 ΔsbmA
[12] = test system: Salmonella enterica subsp. enterica serovar Infantis
[13] = test system: Escherichia coli ATCC 2592
[14] = test system: Staphylococcus aureus ATCC 33591
[15] = test system: Pseudomonas aeruginosa ATCC 10145
[16] = test system: Cryptococcus neoformans ATCC 32045
[17] = test system: Candida albicans ATCC 10231
[18] = test system: Pseudomonas aeruginosa CMCC 10104
[19] = test system: Micrococcus luteus CMCC 28001
[20] = test system: Klebsiella pneumoniae CMCC 46117
[21] = test system: Pseudomonas aeruginosa
[22] = test system: Staphylococcus epidermidis
[23] = test system: Escherichia coli ATCC 8099
[24] = test system: Micrococcus sp. S1.634
[25] = test system: Acinetobacter baumannii b-04
[26] = test system: Salmonella enterica subsp. enterica serovar Paratyphi B CMCC 50094
[27] = test system: Acinetobacter baumannii b-02
[28] = test system: Klebsiella pneumoniae
[29] = test system: Staphylococcus aureus CMCC 26003
[30] = test system: Bacillus subtilis DB430
[31] = test system: Acinetobacter baumannii b-03
[32] = test system: Acinetobacter baumannii b-01
[33] = test system: Bacillus pumilus CMCC 63202
[34] = test system: Staphylococcus aureus
[35] = test system: Escherichia coli BB2013-30
[36] = test system: Escherichia coli JW55034
[37] = test system: Pseudomonas aeruginosa BB2013-100
[38] = test system: Klebsiella aerogenes St. L P63
[39] = test system: Acinetobacter baumannii Josh 230
[40] = test system: Klebsiella pneumoniae J3702
[41] = test system: Enterobacter asburiae St. L P23
[42] = test system: Acinetobacter baumannii Josh 28
[43] = test system: Escherichia coli ARLG-1012
[44] = test system: Klebsiella pneumoniae BB2009-209
[45] = test system: Pseudomonas aeruginosa ATCC 27853
[46] = test system: Klebsiella pneumoniae Oschner KP-1
[47] = test system: Escherichia coli ATCC 25922
[48] = test system: Enterobacter cloacae St. L P23
[49] = test system: Escherichia coli BW25113
[50] = test system: Pseudomonas aeruginosa J4228
[51] = test system: Enterobacter cloacae BB2013-32
[52] = test system: Enterobacter cloacae BB2012-181

MIC [1]: 0.024 µM (≈ 0.051 µg/mL)
MIC [2]: 0.034 µM (≈ 0.0722 µg/mL)
MIC [3]: 0.034 µM (≈ 0.0722 µg/mL)
MIC [4]: 0.048 µM (≈ 0.102 µg/mL)
MIC [5]: 0.024 µM (≈ 0.051 µg/mL)
MIC [6]: 0.034 µM (≈ 0.0722 µg/mL)
MIC [7]: 0.017 µM (≈ 0.0361 µg/mL)
MIC [8]: 0.031 µM (≈ 0.0658 µg/mL)
MIC [9]: 0.012 µM (≈ 0.0255 µg/mL)
MIC [10]: 0.024 µM (≈ 0.051 µg/mL)
MIC [11]: 0.096 µM (≈ 0.204 µg/mL)
MIC [12]: 0.024 µM (≈ 0.051 µg/mL)
SMILES: CC(C)C[C@H](NC(=O)[C@H](CCCN=C(N)N)NC(=O)[C@@H]1CCCN1C(=O)[C@H](Cc1cnc[nH]1)NC(=O)[C@@H]1CCCN1C(=O)[C@@H]1CCCN1C(=O)[C@H](CCCN=C(N)N)NC(=O)[C@@H]1CCCN1C(=O)[C@H](CCC(N)=O)NC(=O)[C@@H]1CCCN1C(=O)[C@H](CCCN=C(N)N)NC(=O)[C@H](Cc1ccc(O)cc1)NC(=O)[C@@H](NC(=O)[C@@H]1CCCN1C(=O)[C@H](CCCCN)NC(=O)[C@H](CC(N)=O)NC(=O)[C@H](CC(N)=O)NC(=O)CN)C(C)C)C(=O)O [GNNKPVYRPQPRPPHPRL]

MIC [13]: 13.7 µM (≈ 44.5 µg/mL)
MIC [14]: ≥ 77 µM
MIC [15]: ≥ 77 µM
MIC [16]: 15.3 µM (≈ 49.8 µg/mL)
MIC [17]: 54.5 µM (≈ 177 µg/mL)
SMILES: NCCCC[C@H](NC(=O)[C@H](Cc1ccccc1)NC(=O)[C@H](CCCCN)NC(=O)[C@H](CCCCN)NC(=O)[C@H](Cc1ccccc1)NC(=O)[C@H](CCCCN)NC(=O)[C@H](CCCCN)NC(=O)[C@H](Cc1ccccc1)NC(=O)[C@H](CCCCN)NC(=O)[C@H](CCCCN)NC(=O)[C@H](Cc1ccccc1)NC(=O)[C@H](CCCCN)NC(=O)[C@H](CCCCN)NC(=O)[C@H](Cc1ccccc1)NC(=O)[C@H](CCCCN)NC(=O)[C@H](CCCCN)NC(=O)[C@H](Cc1ccccc1)NC(=O)[C@H](CCCCN)NC(=O)[C@H](CCCCN)NC(=O)[C@H](Cc1ccccc1)NC(=O)[C@H](CCCCN)NC(=O)[C@H](CCCCN)NC(=O)[C@H](Cc1ccccc1)NC(=O)[C@@H](N)CCCCN)C(=O)O [KFKKFKKFKKFKKFKKFKKFKKFK]

MIC [18]: 1.6 µM (≈ 4 µg/mL)
MIC [19]: 0.802 µM (≈ 2 µg/mL)
MIC [20]: 0.802 µM (≈ 2 µg/mL)
MIC [21]: 0.641 µM and 1.13 µM
MIC [22]: 0.802 µM (≈ 2 µg/mL)
MIC [23]: 0.201 µM (≈ 0.5 µg/mL)
MIC [24]: 0.401 µM (≈ 1 µg/mL)
MIC [25]: 0.641 µM (≈ 1.6 µg/mL)
MIC [26]: 0.802 µM (≈ 2 µg/mL)
MIC [27]: 1.25 µM (≈ 3.12 µg/mL)
MIC [28]: 0.567 µM (≈ 1.41 µg/mL)
MIC [29]: 0.201 µM (≈ 0.5 µg/mL)
MIC [30]: 0.802 µM (≈ 2 µg/mL)
MIC [31]: 1.3 µM (≈ 3.25 µg/mL)
MIC [32]: 0.321 µM (≈ 0.8 µg/mL)
MIC [33]: 0.201 µM (≈ 0.5 µg/mL)
MIC [34]: 0.401 µM (≈ 1 µg/mL)
SMILES: CC[C@H](C)[C@H](NC(=O)[C@H](Cc1ccccc1)NC(=O)[C@H](CO)NC(=O)[C@H](CCCCN)NC(=O)[C@H](Cc1c[nH]c2ccccc12)NC(=O)[C@@H](N)CCCCN)C(=O)N[C@@H](CCCCN)C(=O)N[C@@H](CCCCN)C(=O)N[C@@H](CC(C)C)C(=O)N[C@H](C(=O)N[C@@H](CCCCN)C(=O)N[C@@H](CCCCN)C(=O)N[C@@H](Cc1ccccc1)C(=O)N[C@@H](CC(C)C)C(=O)N[C@@H](Cc1cnc[nH]1)C(=O)N[C@@H](CO)C(=O)N[C@@H](C)C(=O)N[C@@H](CCCCN)C(=O)N[C@@H](CCCCN)C(=O)N[C@@H](Cc1ccccc1)C(N)=O)[C@@H](C)O [KWKSFIKKLTKKFLHSAKKF]

MIC [35]: 5.44 µM (≈ 7.99 µg/mL)
MIC [36]: 2.72 µM (≈ 4 µg/mL)
MIC [37]: 21.8 µM (≈ 32 µg/mL)
MIC [38]: 10.9 µM (≈ 16 µg/mL)
MIC [39]: 10.9 µM (≈ 16 µg/mL)
MIC [40]: 10.9 µM (≈ 16 µg/mL)
MIC [41]: 21.8 µM (≈ 32 µg/mL)
MIC [42]: 2.72 µM (≈ 4 µg/mL)
MIC [43]: 2.72 µM (≈ 4 µg/mL)
MIC [44]: 21.8 µM (≈ 32 µg/mL)
MIC [45]: 5.44 µM (≈ 7.99 µg/mL)
MIC [46]: 21.8 µM (≈ 32 µg/mL)
MIC [47]: 12 µM and 24.1 µM
MIC [48]: 21.8 µM (≈ 32 µg/mL)
MIC [49]: 2.72 µM (≈ 4 µg/mL)
MIC [50]: 10.9 µM (≈ 16 µg/mL)
MIC [51]: 10.9 µM (≈ 16 µg/mL)
MIC [52]: 10.9 µM (≈ 16 µg/mL)
SMILES: CC[C@H](C)[C@H](NC(=O)[C@H](CCCCN)NC(=O)[C@H](CCCCN)NC(=O)[C@@H](NC(=O)[C@H](C)NC(=O)[C@H](CCCCN)NC(=O)[C@@H](NC(=O)[C@@H](NC(=O)[C@H](CC(C)C)NC(=O)[C@H](CCCCN)NC(=O)[C@H](C)NC(=O)[C@H](Cc1c[nH]c2ccccc12)NC(=O)CN)[C@@H](C)CC)[C@@H](C)O)[C@@H](C)CC)C(N)=O [GWAKLITKAIKKI]
